From US9492471B2, “Methods of treating a disease or disorder associated with Bruton'S Tyrosine Kinase” (Celgene Avilomics Research, Inc., priority 2013, dated 2016) come the findings set out here.

Common to all, as to assay: HotSpot kinase profiling
Common to all, as to format: biochemical

One test concerns the target T1, TSSK3/STK22C (Homo sapiens, UniProt Q96PN8).
T1 construct: purchased Reaction Biology Corp
T1 sequence (Q96PN8 1-268): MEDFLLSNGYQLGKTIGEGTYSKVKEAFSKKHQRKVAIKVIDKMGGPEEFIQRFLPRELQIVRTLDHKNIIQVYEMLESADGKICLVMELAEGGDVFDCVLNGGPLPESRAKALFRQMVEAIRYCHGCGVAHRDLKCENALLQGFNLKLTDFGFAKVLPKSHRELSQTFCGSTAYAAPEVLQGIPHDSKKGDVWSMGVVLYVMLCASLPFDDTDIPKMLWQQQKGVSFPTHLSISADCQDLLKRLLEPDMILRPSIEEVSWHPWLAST
Summed up:
(§1)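 Radiometric kinase assay with P81 filter capture; each kinase was added to fresh substrate plus cofactors in reaction buffer and incubated 2 h at room temperature. Unreacted phosphate was washed off with 0.1% phosphoric acid before detection; percent inhibition is relative to DMSO control, averaged over replicates.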

The next test deals with T2, PRKX (Homo sapiens, UniProt P51817).
T2 construct: purchased Reaction Biology Corp
T2 sequence (P51817 1-358): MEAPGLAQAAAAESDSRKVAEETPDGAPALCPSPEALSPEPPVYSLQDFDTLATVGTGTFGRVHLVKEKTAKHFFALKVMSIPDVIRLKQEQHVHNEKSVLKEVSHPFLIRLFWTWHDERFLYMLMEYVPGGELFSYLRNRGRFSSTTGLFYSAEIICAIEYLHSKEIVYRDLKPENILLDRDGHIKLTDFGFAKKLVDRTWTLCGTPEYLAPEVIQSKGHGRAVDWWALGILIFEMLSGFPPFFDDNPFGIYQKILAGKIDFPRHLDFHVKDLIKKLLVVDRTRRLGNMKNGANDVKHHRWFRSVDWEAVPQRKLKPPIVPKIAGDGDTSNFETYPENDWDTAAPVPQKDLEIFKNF
Summed up:
as §1

A further test addresses T3, ARAF (Homo sapiens, UniProt P10398).
T3 construct: purchased Reaction Biology Corp
T3 sequence (P10398 1-606): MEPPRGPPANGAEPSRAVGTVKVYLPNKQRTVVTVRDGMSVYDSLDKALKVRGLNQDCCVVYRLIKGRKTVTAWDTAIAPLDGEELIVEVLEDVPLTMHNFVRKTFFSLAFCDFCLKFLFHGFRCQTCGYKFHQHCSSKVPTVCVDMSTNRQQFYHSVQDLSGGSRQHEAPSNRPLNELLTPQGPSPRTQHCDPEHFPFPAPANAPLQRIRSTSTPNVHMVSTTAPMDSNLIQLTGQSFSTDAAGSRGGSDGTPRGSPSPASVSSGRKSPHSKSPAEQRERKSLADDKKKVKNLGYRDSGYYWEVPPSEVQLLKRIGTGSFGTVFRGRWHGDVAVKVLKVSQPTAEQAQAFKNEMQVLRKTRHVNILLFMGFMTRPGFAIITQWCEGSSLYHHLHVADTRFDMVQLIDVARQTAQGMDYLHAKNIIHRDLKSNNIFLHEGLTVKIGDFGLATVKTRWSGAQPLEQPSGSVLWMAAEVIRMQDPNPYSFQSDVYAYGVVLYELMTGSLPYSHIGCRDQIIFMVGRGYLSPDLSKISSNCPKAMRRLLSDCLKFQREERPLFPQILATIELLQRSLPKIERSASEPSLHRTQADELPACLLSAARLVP
Summed up: as §1

The next test addresses T4, ULK1 (Homo sapiens, UniProt O75385).
T4 construct: purchased Reaction Biology Corp
T4 sequence (O75385 1-1050): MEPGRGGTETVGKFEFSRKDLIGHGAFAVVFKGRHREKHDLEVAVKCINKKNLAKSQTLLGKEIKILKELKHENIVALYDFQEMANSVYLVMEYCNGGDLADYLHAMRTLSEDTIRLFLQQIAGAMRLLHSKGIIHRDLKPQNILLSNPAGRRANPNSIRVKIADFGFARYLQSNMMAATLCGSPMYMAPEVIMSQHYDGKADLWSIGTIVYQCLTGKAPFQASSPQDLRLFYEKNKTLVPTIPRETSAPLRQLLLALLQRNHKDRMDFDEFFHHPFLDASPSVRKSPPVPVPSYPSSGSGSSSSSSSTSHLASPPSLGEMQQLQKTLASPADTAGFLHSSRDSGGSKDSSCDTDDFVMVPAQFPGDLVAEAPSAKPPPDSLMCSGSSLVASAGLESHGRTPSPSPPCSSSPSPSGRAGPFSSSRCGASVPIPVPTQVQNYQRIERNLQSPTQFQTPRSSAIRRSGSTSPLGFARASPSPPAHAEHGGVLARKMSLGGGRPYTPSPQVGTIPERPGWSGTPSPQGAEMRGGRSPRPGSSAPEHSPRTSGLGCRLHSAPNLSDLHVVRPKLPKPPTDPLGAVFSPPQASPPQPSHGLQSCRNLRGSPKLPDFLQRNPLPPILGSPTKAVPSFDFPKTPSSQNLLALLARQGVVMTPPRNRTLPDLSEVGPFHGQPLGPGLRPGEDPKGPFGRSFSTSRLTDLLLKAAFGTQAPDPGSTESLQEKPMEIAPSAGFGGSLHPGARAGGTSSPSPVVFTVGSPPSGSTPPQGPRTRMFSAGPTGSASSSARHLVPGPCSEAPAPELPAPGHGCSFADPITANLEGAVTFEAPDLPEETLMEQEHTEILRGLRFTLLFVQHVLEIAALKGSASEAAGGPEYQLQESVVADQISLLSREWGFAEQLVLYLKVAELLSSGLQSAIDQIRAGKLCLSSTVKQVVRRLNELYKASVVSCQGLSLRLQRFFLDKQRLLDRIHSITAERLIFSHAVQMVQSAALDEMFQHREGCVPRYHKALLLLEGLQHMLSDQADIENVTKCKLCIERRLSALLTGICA
Summed up:
as §1

Setting [1] is: read-out: % Enzyme Activity (relative to DMSO controls) Run 1.
The mark [2] stands for this setting: read-out: % Enzyme Activity (relative to DMSO controls) Run 2.

Like-named read-outs stand apart in the source and are kept apart here.

On to `C=CC(=O)Nc1cccc(Nc2nc(Nc3ccc(OCCOC)c(F)c3)ncc2F)c1` [Compound 2], for which the inhibition at 3 µM was -32.6% at TSSK3/STK22C, 1.8% at PRKX, -1.47% against ARAF and -0.59% on ULK1. Besides, the remaining activity at 3 µM at TSSK3/STK22C (setting [1]) is 133%; at TSSK3/STK22C (setting [2]), 133%; at PRKX (setting [1]), 97.9%; at PRKX (setting [2]) it was 98.5%; at ARAF (setting [1]), 103%; on ARAF (setting [2]), 100%. Further, the remaining activity at 3 µM at ULK1 (setting [1]) came out at 100%; on ULK1 (setting [2]) it was 101%.

The term inhibition denotes the change of the read-out against control, counted positive when it falls.
